Experimental data from ChEMBL document CHEMBL6134797, “Exploring 7β-amino-6-nitrocholestens as COVID-19 antivirals: in silico, synthesis, evaluation, and integration of artificial intelligence (AI) in drug design: assessing the cytotoxicity and antioxidant activity of 3β-acetoxynitrocholestane” (RSC Med Chem, 2024).
In brackets after ≈: the same amount, converted by molar mass. Activity calls are given as the source filed them. The rule behind the calls is not given here.

Columns and labels:
[1] = Antioxidant activity assessed as DPPH radical scavenging activity up to 10 ug/ml measured after 30 mins by UV-vis spectrophotometry; format: functional; settings: dose <= 10.0 µg/ml
[2] = Antioxidant activity assessed as DPPH radical scavenging activity at 10 ug/ml measured after 30 mins by UV-vis spectrophotometry relative to control; format: functional; settings: dose 10.0 µg/ml
HT-29 [3] = assay: Cytotoxicity against human HT-29 cells assessed as cell viability at 20 uM measured after 24 hrs by MTT assay relative to control; format: functional; settings: read-out: Activity
HT-29 [4] = assay: Cytotoxicity against human HT-29 cells assessed as reduction in cell viability measured after 24 hrs by MTT assay; format: functional, cell-based
SW-620 [5] = assay: Cytotoxicity against human SW620 cells assessed as reduction in cell viability measured after 24 hrs by MTT assay; format: functional, cell-based
[6] = Antioxidant activity assessed as DPPH radical scavenging activity measured after 30 mins by UV-vis spectrophotometry; format: functional
[7] = Cytotoxicity against splenocytes (unknown origin) assessed as reduction in cell viability at 1.25 to 20 uM measured after 24 hrs by MTT assay; format: toxicity, cell-based; settings: splenocyte, dose 1.25-20 µM
SW-620 [8] = assay: Cytotoxicity against human SW620 cells assessed as cell viability at 20 uM measured after 24 hrs by MTT assay relative to control; format: functional; settings: read-out: Activity

Compound: O=C1O[C@H]([C@@H](O)CO)C(O)=C1O
- Activity [1]: Active

Compound: CN[C@H]1C([N+](=O)[O-])=C2C[C@@H](O)CC[C@]2(C)[C@H]2CC[C@]3(C)[C@@H]([C@H](C)CCCC(C)C)CC[C@H]3[C@H]12
- Activity [2]: 51.2%

Compound: CCN(CC)[C@H]1C([N+](=O)[O-])=C2C=CCC[C@]2(C)[C@H]2CC[C@]3(C)[C@@H]([C@H](C)CCCC(C)C)CC[C@H]3[C@H]12
- Activity [2]: 64.8%

Compound: CC(=O)O[C@@H]1C=C2C([N+](=O)[O-])=C[C@H]3[C@@H]4CC[C@H]([C@H](C)CCCC(C)C)[C@@]4(C)CC[C@@H]3[C@@]2(C)CC1
- viability at 20 µM (HT-29 [3]): 10.8%
- Activity [2]: 86.2%
- Activity (HT-29 [4]): Dose-dependent-effect
- IC50 (HT-29 [4]; HT-29, 24 h): 11.5 µM
- Activity (SW-620 [5]): Dose-dependent-effect
- IC50 (SW-620 [5]; SW-620, 24 h): 10 µM
- IC50 [6]: 2.78 µg/mL (≈ 5.89 µM)
- Activity [7]: Non-toxic
- viability at 20 µM (SW-620 [8]): 15.2%

Compound: CN[C@H]1C([N+](=O)[O-])=C2C=C(Cl)CC[C@]2(C)[C@H]2CC[C@]3(C)[C@@H]([C@H](C)CCCC(C)C)CC[C@H]3[C@H]12
- Activity [2]: 66.5%

Compound: CN[C@H]1C([N+](=O)[O-])=C2C=CCC[C@]2(C)[C@H]2CC[C@]3(C)[C@@H]([C@H](C)CCCC(C)C)CC[C@H]3[C@H]12
- Activity [2]: 67.9%

Compound: CC(C)CCC[C@@H](C)[C@H]1CC[C@H]2[C@@H]3[C@@H](N(C)C)C([N+](=O)[O-])=C4C=CCC[C@]4(C)[C@H]3CC[C@]12C
- Activity [2]: 80.6%
- IC50 [6]: 3.08 µg/mL (≈ 6.74 µM)
